Experimental data reported in the supplement of paper PMC7840683.
Counter-ions that a name gives are not always drawn. ± gives the standard deviation of the averaged measurements.

Test system: HepaRG
Test: LDH release cytotoxicity, % of total lysis control; higher = more cytotoxic
Conditions: 48 h
How it was run: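 HepaRG cells from a single lot were plated on collagen I-coated 96-well plates and treated in duplicate for 48 h with eight-point half-log series of test chemicals, starting at 100 µM, in serum-free induction medium containing 0.5% DMSO. Total lysis wells were given 0.1% Triton X. LDH released into 50 µL of spent medium was measured as resorufin fluorescence with CytoTox-ONE on a Tecan Safire. Percent cytotoxicity was normalized to on-plate vehicle and total lysis controls and then averaged across duplicates.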

Compound | LDH release cytotoxicity (0.1 µM) [%] | LDH release cytotoxicity (1 µM) [%] | LDH release cytotoxicity (3.16228 µM) [%] | LDH release cytotoxicity (10 µM) [%] | LDH release cytotoxicity (31.6228 µM) [%] | LDH release cytotoxicity (100 µM) [%] | LDH release cytotoxicity (0.03162 µM) [%] | LDH release cytotoxicity (0.3162278 µM) [%] | other results
CC(=O)OCC=C(C)CCC=C(C)C [Geranyl acetate] | -3.48 ± 2.1 | -4.04 ± 0.45 | -4.04 ± 0.095 | -3.42 ± 0.49 | -1.98 ± 0.24 | -0.423 ± 0.54 |  |  | LDH release cytotoxicity (0.031623 µM): -1.3 ± 1.1%; LDH release cytotoxicity (0.316228 µM): -4.47 ± 1.1%
O=CCCCC=O [Glutaraldehyde] | -1.62 ± 0.91 | -1.74 ± 0.39 | -1.11 ± 0.16 | -0.663 ± 0.23 | -1.18 ± 0.084 | 0.174 ± 0.34 | -0.884 ± 0.62 | -1.72 ± 0.78 | 
OCC(O)CO [Glycerol] | -1.11 ± 0.27 | -1.79 ± 0.27 | -1.43 ± 0.14 | -1.14 ± 0.37 | -0.926 ± 0.83 | -0.545 ± 0.22 | -1.51 ± 0.67 | -1.56 ± 0.12 | 
OCC1CO1 (centres undefined) [Glycidol] | -1.28 ± 0.094 | -1.25 ± 0.47 | -0.452 ± 0.0064 | -0.678 ± 0.18 | -0.342 ± 0.43 | 1.57 ± 0.042 | -0.883 ± 0.53 | -0.409 ± 0.45 | 
C[N+](C)(C)CC1CO1 (centres undefined) [Glycidyl trimethylammonium chloride] | -0.64 ± 0.72 | -1.32 ± 0.64 | -1.48 ± 0.5 | -0.844 ± 0.16 | -0.342 ± 0.33 | 0.366 ± 0.66 | -0.794 ± 0.83 | -0.926 ± 0.041 | 
CCCCCCC(CCCCCCCCCCC(=O)OCC(COC(C)=O)OC(C)=O)OC(C)=O (centres undefined) [Grinstad Soft-N-Safe] |  |  |  |  |  |  |  |  | LDH release cytotoxicity (0.015811 µM): -1.88 ± 0.51%; LDH release cytotoxicity (0.05 µM): -1.59 ± 1.3%; LDH release cytotoxicity (0.158114 µM): -1.52 ± 1.4%; LDH release cytotoxicity (0.5 µM): -1.93 ± 1.6%; LDH release cytotoxicity (1.58114 µM): -2.07 ± 1.3%; LDH release cytotoxicity (5 µM): -1.64 ± 1.7%; LDH release cytotoxicity (15.8114 µM): -0.943 ± 1.3%; LDH release cytotoxicity (50 µM): 1.04 ± 1.8%
CCN(CC)C(=O)c1cc(S(=O)(=O)Cc2ccccc2)c(N2CCC(c3ccccc3)CC2)cc1N(CC)CCN(C)C [HMR1171 trifluoroacetate (1:1)] |  |  |  |  |  |  |  |  | LDH release cytotoxicity (0.01202 µM): 1.63 ± 0.27%; LDH release cytotoxicity (0.038 µM): 0.671 ± 0.26%; LDH release cytotoxicity (0.120167 µM): 0.671 ± 1.3%; LDH release cytotoxicity (0.38 µM): -0.413 ± 1.6%; LDH release cytotoxicity (1.20167 µM): -7.42 ± 1%; LDH release cytotoxicity (3.8 µM): 9.34 ± 2.8%; LDH release cytotoxicity (12.01666 µM): 1.9 ± 0.12%; LDH release cytotoxicity (38 µM): 82.5 ± 8.2%
OC12N=C(c3ccccc3)SC1Cc1cc(Cl)ccc12 (centres undefined) [HMR1426] | -0.325 ± 2 | 1.42 ± 1.4 | 3.44 ± 0.72 | 4.43 ± 0.51 | 3.89 ± 0.3 | 8.06 ± 0.31 | 0.113 ± 0.048 | 2.01 ± 0.36 | 
O=C(CCCN1CCC(O)(c2ccc(Cl)cc2)CC1)c1ccc(F)cc1 [Haloperidol] | -2.17 ± 0.32 | -1.63 ± 0.15 | -2.03 ± 0.68 | -1.44 ± 0.67 | 4.34 ± 1.7 | 62.2 ± 7.4 | -1.32 ± 0.62 | -1.58 ± 0.27 | 
ClC1=C(Cl)C2(Cl)C3C4OC4C(Cl)C3C1(Cl)C2(Cl)Cl (centres undefined) [Heptachlor epoxide B] | -4.16 ± 0.083 | -3.99 ± 0.81 | -3.88 ± 0.66 | -3.4 ± 0.55 | -3.14 ± 0.91 | -0.787 ± 0.59 | -4.87 ± 0.88 | -4.44 ± 0.44 | 
ClC1=C(Cl)C2(Cl)C3C(Cl)C=CC3C1(Cl)C2(Cl)Cl (centres undefined) [Heptachlor] | -3.41 ± 1.6 | -2.89 ± 2.9 | -2.85 ± 1.9 | -1.78 ± 2.6 | -1.45 ± 2.4 | -0.326 ± 1.3 |  |  | LDH release cytotoxicity (0.031623 µM): 0.0329 ± 0.088%; LDH release cytotoxicity (0.316228 µM): -2.78 ± 0.4%
CCCCCCC(=O)O [Heptanoic acid] | -1.55 ± 0.4 | -1.97 ± 0.48 | -1.6 ± 0.66 | -1.54 ± 0.79 | -1.75 ± 0.26 | 0.197 ± 0.072 | -1.47 ± 0.29 | -1.65 ± 0.77 | 
ClC1=C(Cl)C(Cl)(Cl)C(Cl)=C1Cl [Hexachlorocyclopentadiene] | -0.0238 ± 0.36 | -1.14 ± 0.92 | -0.83 ± 0.046 | -0.988 ± 0.15 | -0.0453 ± 0.82 | 0.368 ± 1.3 |  |  | LDH release cytotoxicity (0.031623 µM): -1.11 ± 2.6%; LDH release cytotoxicity (0.316228 µM): -1.49 ± 0.55%
CCCCC(O)(Cn1cncn1)c1ccc(Cl)cc1Cl (centres undefined) [Hexaconazole] | -0.668 ± 1.4 | -0.913 ± 0.57 | -0.0659 ± 0.044 | 0.28 ± 0.96 | -0.401 ± 0.24 | 10.1 ± 1.3 | -0.998 ± 0.92 | 0.00223 ± 0.062 | 
CCCCCCCCCCCCCCCC [Hexadecane] | -0.43 ± 0.69 | -1.31 ± 0.45 | -0.091 ± 0.79 | -0.203 ± 0.97 | 0.166 ± 0.85 | -0.385 ± 0.52 | -0.113 ± 0.57 | -1.34 ± 0.2 | 
O=C(NC(=O)c1c(F)cccc1F)Nc1cc(Cl)c(OC(F)(F)C(F)F)c(Cl)c1 [Hexaflumuron] | -1 ± 0.078 | -1.29 ± 1.2 | -1.24 ± 0.28 | -0.349 ± 0.16 | -0.129 ± 0.31 | 4.86 ± 1.1 | -0.197 ± 0.083 | -1.85 ± 0.34 | 
O=C(OCCCCCCOC(=O)c1ccccc1)c1ccccc1 [Hexane-1,6-diyl dibenzoate] | -1.87 ± 0.28 | -2.77 ± 1.1 | -2.28 ± 0.66 | -1.66 ± 0.29 | -1.98 ± 0.81 | -0.594 ± 0.66 | -2.1 ± 1 | -2.22 ± 0.23 | 
N#CCCCCC#N [Hexanedinitrile] | -0.226 ± 0.15 | -1 ± 1 | -0.445 ± 0.31 | -0.461 ± 0.08 | -0.494 ± 0.13 | 0.294 ± 0.37 | -0.442 ± 0.26 | 0.0594 ± 0.38 | 
CC(C)CCCCCCOC(=O)CCCCC(=O)OCCCCCCC(C)C [Hexanedioic acid, diisononyl ester] | -0.123 ± 0.24 | -0.997 ± 1.1 | 0.19 ± 0.33 | 0.0398 ± 0.088 | 0.663 ± 0.4 | 0.377 ± 0.98 | -1.22 ± 0.85 | 0.647 ± 0.098 | 
O=C(O)CCCCC(=O)O [Hexanedioic acid] | -0.838 ± 0.079 | -1.17 ± 0.34 | -1.55 ± 0.028 | -0.895 ± 0.82 | -1.25 ± 0.29 | 0.446 ± 0.27 | -0.567 ± 0.22 | -1.43 ± 1.4 | 
CCCCCC(=O)O [Hexanoic acid] | -1.97 ± 0.41 | -1.44 ± 0.26 | -1.32 ± 0.1 | -1.49 ± 1.2 | -0.358 ± 0.055 | 0.23 ± 0.78 | -2.52 ± 0.086 | -0.0407 ± 0.14 | 
CN(C)c1nc(=O)n(C2CCCCC2)c(=O)n1C [Hexazinone] | -1.77 ± 0.46 | -2.14 ± 0.28 | -0.406 ± 1.8 | -0.642 ± 0.23 | -1.37 ± 0.81 | 0.813 ± 0.03 | -1.77 ± 0.1 | 0.416 ± 1.9 | 
CC1C(c2ccc(Cl)cc2)SC(=O)N1C(=O)NC1CCCCC1 (centres undefined) [Hexythiazox] | -2.1 ± 0.29 | -1.79 ± 0.32 | -1.86 ± 0.39 | -2.05 ± 0.75 | 1.36 ± 1.8 | 6.86 ± 1.2 | -0.985 ± 0.63 | -1.93 ± 0.23 | 
NS(=O)(=O)c1cc2c(cc1Cl)NCNS2(=O)=O [Hydrochlorothiazide] | -1.26 ± 0.43 | -1.51 ± 0.88 | -1.15 ± 0.3 | -0.679 ± 0.3 | -1.51 ± 0.25 | -0.146 ± 0.38 | -0.499 ± 1.2 | -1.458 ± 0.011 | 
Oc1ccc(O)cc1 [Hydroquinone] | -0.606 ± 1 | -0.745 ± 0.076 | -0.483 ± 0.15 | -0.0561 ± 0.24 | -0.947 ± 0.53 | -1.615 ± 0.013 | 0.852 ± 2.2 | -1.09 ± 0.16 | 
CC(C)(O)C(=O)Nc1ccc([N+](=O)[O-])c(C(F)(F)F)c1 [Hydroxyflutamide] |  |  |  |  |  |  |  |  | LDH release cytotoxicity (0.01581 µM): -1.79 ± 0.91%; LDH release cytotoxicity (0.05 µM): -0.825 ± 0.75%; LDH release cytotoxicity (0.1581139 µM): -0.846 ± 0.13%; LDH release cytotoxicity (0.5 µM): -1.16 ± 0.28%; LDH release cytotoxicity (1.5811388 µM): -0.0206 ± 0.13%; LDH release cytotoxicity (5 µM): 0.0482 ± 0.13%; LDH release cytotoxicity (15.8114 µM): -1.19 ± 0.34%; LDH release cytotoxicity (50 µM): 2.46 ± 1.6%
NC(=O)NO [Hydroxyurea] | -1.59 ± 1.4 | -2.62 ± 0.18 | -1.83 ± 0.11 | -1.79 ± 0.38 | -0.278 ± 0.73 | 2.82 ± 1.5 | -2.94 ± 1.1 | -2.4 ± 0.64 | 
CCC(C)OC(=O)N1CCCCC1CCO (centres undefined) [Icaridin] | 4.72 ± 0.94 | 5.97 ± 4 | 5.34 ± 1.5 | 2.82 ± 1.4 | 8.294 ± 0.063 | 9.41 ± 0.56 | 6.64 ± 2.3 | 4.33 ± 2.2 | 
